Measured values taken from patent publication US8952024B2, “Herbicidal pyrimidone derivatives” (E I du Pont de Nemours and Company, priority 2009, dated 2015).

Key:
Experiment in all cases: Test B pre-/postemergence plant response
Type in all cases: in vivo
[1] = tested on: large crabgrass (Digitaria sanguinalis); settings: for Crabgrass, Large plant response rating (0 to 100 scale): 62 g ai/ha, 0 is no effect, 13 to 15 days
How it was run: (§1)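 Visually scored on a 0 to 100 scale after 13 to 15 days in greenhouse versus controls. Treatments were preemergence on seeded loam/sand soil and postemergence on 1- to 4-leaf plants.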

[2] = tested on: kochia (Kochia scoparia); settings: for Kochia plant response rating (0 to 100 scale): 62 g ai/ha, 0 is no effect, 13 to 15 days
How it was run: as §1

[3] = tested on: lambsquarters (Chenopodium album); settings: for Lambsquarters plant response rating (0 to 100 scale): 62 g ai/ha, 0 is no effect, 13 to 15 days
How it was run: as §1

[4] = tested on: woolly cupgrass (Eriochloa villosa); settings: for Cupgrass, Woolly plant response rating (0 to 100 scale): 62 g ai/ha, 0 is no effect, 13 to 15 days
How it was run: as §1

[5] = tested on: cocklebur (Xanthium strumarium); settings: for Cocklebur plant response rating (0 to 100 scale): 62 g ai/ha, 0 is no effect, 13 to 15 days
How it was run: as §1

[6] = tested on: yellow nutsedge (Cyperus esculentus); settings: for Nutsedge, Yellow plant response rating (0 to 100 scale): 62 g ai/ha, 0 is no effect, 13 to 15 days
How it was run: as §1

[7] = tested on: wild oat (Avena fatua); settings: for Oat, Wild plant response rating (0 to 100 scale): 62 g ai/ha, 0 is no effect, 13 to 15 days
How it was run: as §1

[8] = tested on: Surinam grass (Brachiaria decumbens); settings: for Surinam Grass plant response rating (0 to 100 scale): 62 g ai/ha, 0 is no effect, 13 to 15 days
How it was run: as §1

[9] = 31 g ai/ha, postemergence, scale 0 to 100, 0 is no effect, 100 is complete control
[10] = postemergence, 100 is complete control
[11] = Postemergence, 125 g ai/ha, visual rating after 13 to 15 days, scale 0 (no effect) to 100 (complete control)
[12] = Postemergence, 250 g ai/ha, scale 0 to 100 (0 no effect, 100 complete control)

Compound | Plant response rating, Crabgrass, Large [1, 9] | Crabgrass, Large plant response rating (0 to 100 scale) [1, 10] | Plant response rating, Crabgrass, Large [1, 11] | Plant response rating, Crabgrass, Large [1, 12] | Kochia plant response rating (0 to 100 scale) [2, 10] | Plant response rating, Kochia [2, 12] | Plant response rating, Lambsquarters [3, 9] | Lambsquarters plant response rating (0 to 100 scale) [3, 10] | Plant response rating, Lambsquarters [3, 12] | Cupgrass, Woolly plant response rating (0 to 100 scale) [4, 10] | Plant response rating, Cupgrass, Woolly [4, 11] | Plant response rating, Cupgrass, Woolly [4, 12] | Plant response rating, Cocklebur [5, 9] | Cocklebur plant response rating (0 to 100 scale) [5, 10] | Plant response rating, Cocklebur [5, 11] | Plant response rating, Cocklebur [5, 12] | Plant response rating, Nutsedge, Yellow [6, 9] | Nutsedge, Yellow plant response rating (0 to 100 scale) [6, 10] | Plant response rating, Nutsedge, Yellow [6, 12] | Plant response rating, Oat, Wild [7, 9] | also measured
CCCn1c(-c2ccsc2)ncc(C(=O)C2=C(O)CCCC2=O)c1=O [Compound 93] | 70 | 80 | 80 | 90 | 85 | 98 | 85 | 95 | 98 | 45 | 65 | 70 | 70 | 90 | 95 | 98 | 45 | 60 | 70 | 0 | Plant response rating, Kochia [2, 9]: 65; Plant response rating, Cupgrass, Woolly [4, 9]: 45; Oat, Wild plant response rating (0 to 100 scale) [7, 10]: 0; Plant response rating, Oat, Wild [7, 12]: 5; Plant response rating, Surinam Grass [8, 9]: 50; Surinam Grass plant response rating (0 to 100 scale) [8, 10]: 65; Plant response rating, Surinam Grass [8, 12]: 70
CCCCCCn1c(-c2ccccc2)ncc(C(=O)C2=C(O)CCCC2=O)c1=O [Compound 94] | 70 | 75 | 90 | 90 | 55 | 90 | 80 | 95 | 100 | 65 | 65 | 70 | 45 | 45 | 60 | 90 | 20 | 20 | 65 | 0 | Oat, Wild plant response rating (0 to 100 scale) [7, 10]: 5; Plant response rating, Oat, Wild [7, 12]: 30; Surinam Grass plant response rating (0 to 100 scale) [8, 10]: 60; Plant response rating, Surinam Grass [8, 12]: 80
